What was measured:
Assay in all cases: FLIPR calcium assay, cells with promiscuous G protein transfected with bitter receptor cDNA
Assay type in all cases: cell-based
Settings in all cases: responsive if cellular response of >10% over baseline, Fluo4-AM
[1] = target: T1, T2R receptor SEQ ID NO: 1 (S1) (Homo sapiens, UniProt Q9NYW7)
T1 construct: expressed in transfected cells; host or cells: cells expressing a promiscuous G protein (e.g., G16g44)
T1 sequence (Q9NYW7 1-299): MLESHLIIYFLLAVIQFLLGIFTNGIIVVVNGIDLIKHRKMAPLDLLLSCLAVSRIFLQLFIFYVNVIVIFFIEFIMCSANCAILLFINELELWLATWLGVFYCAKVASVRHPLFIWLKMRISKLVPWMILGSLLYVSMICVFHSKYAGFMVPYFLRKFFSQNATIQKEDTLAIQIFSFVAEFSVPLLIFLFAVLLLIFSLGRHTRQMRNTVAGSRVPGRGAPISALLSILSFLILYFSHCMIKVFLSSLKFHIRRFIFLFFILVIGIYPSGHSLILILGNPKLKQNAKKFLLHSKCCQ
Protocol: (§1) Cells expressing a promiscuous G protein (e.g., G16g44) were transfected with vectors encoding 22 functional bitter receptor cDNAs, with one receptor per transfection. The cells were transfected directly in 384-well format high-density plates and incubated for 28 hours. Later, cells were loaded with the Ca-specific dye Fluo4-AM. After an incubation of 60 minutes, excess dye is washed off, and cells are stimulated with respective bitter agonists while simultaneously recording changes in intracellular fluorescence using a FLIPR instrument.
(§2) The above protocol was carried out using 94 different active pharmaceutical ingredients (APIs) that span a wide range of different APIs having a diversity of chemical structures. A particular T2R receptor was identified as being responsive to a particular API if it triggered a cellular response of >10% over baseline.

[2] = target: T2, T2R receptor SEQ ID NO: 3 (S3) (Homo sapiens, UniProt Q9NYW0, T156M)
T2 construct: expressed in transfected cells; host or cells: cells expressing a promiscuous G protein (e.g., G16g44)
T2 sequence (Q9NYW0 1-307 T156M): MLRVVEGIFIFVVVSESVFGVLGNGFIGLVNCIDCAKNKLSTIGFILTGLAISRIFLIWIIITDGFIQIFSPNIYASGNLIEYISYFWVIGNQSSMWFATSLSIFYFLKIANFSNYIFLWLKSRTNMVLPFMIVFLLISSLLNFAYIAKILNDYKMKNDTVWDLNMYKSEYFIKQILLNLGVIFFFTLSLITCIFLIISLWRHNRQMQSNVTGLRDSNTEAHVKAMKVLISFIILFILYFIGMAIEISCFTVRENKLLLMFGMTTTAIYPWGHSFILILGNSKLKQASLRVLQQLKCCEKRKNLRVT
Protocol: as §1, §2

[3] = target: T3, T2R receptor SEQ ID NO: 4 (S4) (Homo sapiens, UniProt Q9NYV8)
T3 construct: expressed in transfected cells; host or cells: cells expressing a promiscuous G protein (e.g., G16g44)
T3 sequence (Q9NYV8 1-317): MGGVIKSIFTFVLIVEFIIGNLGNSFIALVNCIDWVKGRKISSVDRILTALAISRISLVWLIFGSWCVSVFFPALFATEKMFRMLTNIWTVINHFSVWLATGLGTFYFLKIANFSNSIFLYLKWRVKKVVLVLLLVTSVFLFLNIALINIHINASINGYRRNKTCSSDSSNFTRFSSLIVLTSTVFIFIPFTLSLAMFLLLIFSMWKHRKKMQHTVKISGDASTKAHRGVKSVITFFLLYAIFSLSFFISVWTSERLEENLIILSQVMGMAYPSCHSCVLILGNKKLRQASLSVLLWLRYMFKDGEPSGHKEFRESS
Protocol: as §1, §2

[4] = target: T4, T2R receptor SEQ ID NO: 5 (S5) (Homo sapiens, UniProt P59534)
T4 construct: expressed in transfected cells; host or cells: cells expressing a promiscuous G protein (e.g., G16g44)
T4 sequence (P59534 18-338): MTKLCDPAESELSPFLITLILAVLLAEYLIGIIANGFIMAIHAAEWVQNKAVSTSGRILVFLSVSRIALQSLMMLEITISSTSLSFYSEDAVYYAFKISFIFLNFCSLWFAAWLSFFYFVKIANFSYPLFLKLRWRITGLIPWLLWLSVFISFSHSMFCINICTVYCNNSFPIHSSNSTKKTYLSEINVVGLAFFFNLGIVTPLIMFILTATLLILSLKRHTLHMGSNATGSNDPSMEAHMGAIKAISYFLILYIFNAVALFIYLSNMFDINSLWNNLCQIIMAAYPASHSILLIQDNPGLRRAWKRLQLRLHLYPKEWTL
Protocol: as §1, §2

[5] = target: T5, T2R receptor SEQ ID NO: 6 (S6) (Homo sapiens, UniProt P59540)
T5 construct: expressed in transfected cells; host or cells: cells expressing a promiscuous G protein (e.g., G16g44)
T5 sequence (P59540 1-309): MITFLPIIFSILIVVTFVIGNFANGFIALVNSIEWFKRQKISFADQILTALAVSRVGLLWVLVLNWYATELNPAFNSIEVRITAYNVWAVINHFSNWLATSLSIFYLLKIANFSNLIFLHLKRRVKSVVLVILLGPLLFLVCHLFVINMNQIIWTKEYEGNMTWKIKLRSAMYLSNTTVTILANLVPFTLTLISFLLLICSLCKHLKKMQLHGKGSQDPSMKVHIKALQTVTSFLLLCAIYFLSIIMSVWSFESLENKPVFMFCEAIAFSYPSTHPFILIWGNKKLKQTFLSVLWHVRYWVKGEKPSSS
Protocol: as §1, §2

SMILES: COc1ccc2c(c1)[C@]13CCCC[C@@H]1[C@H](C2)N(C)CC3 [Dextromethorphan]
- S1 positive response of T2R receptor to API [1]: + (a “+” to indicate whether a particular T2R receptor showed a positive response to a particular API)
- S3 positive response of T2R receptor to API [2]: + (a “+” to indicate whether a particular T2R receptor showed a positive response to a particular API)
- S4 positive response of T2R receptor to API [3]: + (a “+” to indicate whether a particular T2R receptor showed a positive response to a particular API)
- S5 positive response of T2R receptor to API [4]: + (a “+” to indicate whether a particular T2R receptor showed a positive response to a particular API)
- S6 positive response of T2R receptor to API [5]: + (a “+” to indicate whether a particular T2R receptor showed a positive response to a particular API)

SMILES: CN(C)CCC(c1ccc(Cl)cc1)c1ccccn1 (centres unmarked) [Chlorpheniramine]
- S1 positive response of T2R receptor to API [1]: + (a “+” to indicate whether a particular T2R receptor showed a positive response to a particular API)
- S3 positive response of T2R receptor to API [2]: + (a “+” to indicate whether a particular T2R receptor showed a positive response to a particular API)
- S4 positive response of T2R receptor to API [3]: + (a “+” to indicate whether a particular T2R receptor showed a positive response to a particular API)
- S5 positive response of T2R receptor to API [4]: + (a “+” to indicate whether a particular T2R receptor showed a positive response to a particular API)
- S6 positive response of T2R receptor to API [5]: + (a “+” to indicate whether a particular T2R receptor showed a positive response to a particular API)

SMILES: N=C(NCCCCCCNC(=N)NC(=N)Nc1ccc(Cl)cc1)NC(=N)Nc1ccc(Cl)cc1.O=C(O)[C@H](O)[C@@H](O)[C@H](O)[C@H](O)CO.O=C(O)[C@H](O)[C@@H](O)[C@H](O)[C@H](O)CO [Chlorhexidine Digluconate]
- S1 positive response of T2R receptor to API [1]: + (a “+” to indicate whether a particular T2R receptor showed a positive response to a particular API)
- S4 positive response of T2R receptor to API [3]: + (a “+” to indicate whether a particular T2R receptor showed a positive response to a particular API)
- S5 positive response of T2R receptor to API [4]: + (a “+” to indicate whether a particular T2R receptor showed a positive response to a particular API)
- S6 positive response of T2R receptor to API [5]: + (a “+” to indicate whether a particular T2R receptor showed a positive response to a particular API)

SMILES: OC(CCCN1CCCCC1)(c1ccccc1)c1ccccc1 [Diphenidol]
- S1 positive response of T2R receptor to API [1]: + (a “+” to indicate whether a particular T2R receptor showed a positive response to a particular API)
- S3 positive response of T2R receptor to API [2]: + (a “+” to indicate whether a particular T2R receptor showed a positive response to a particular API)
- S4 positive response of T2R receptor to API [3]: + (a “+” to indicate whether a particular T2R receptor showed a positive response to a particular API)
- S5 positive response of T2R receptor to API [4]: + (a “+” to indicate whether a particular T2R receptor showed a positive response to a particular API)
- S6 positive response of T2R receptor to API [5]: + (a “+” to indicate whether a particular T2R receptor showed a positive response to a particular API)

SMILES: CC(C)(C)NC[C@H](O)COc1nsnc1N1CCOCC1 [Timolol]
- S1 positive response of T2R receptor to API [1]: + (a “+” to indicate whether a particular T2R receptor showed a positive response to a particular API)
- S3 positive response of T2R receptor to API [2]: + (a “+” to indicate whether a particular T2R receptor showed a positive response to a particular API)
- S5 positive response of T2R receptor to API [4]: + (a “+” to indicate whether a particular T2R receptor showed a positive response to a particular API)
- S6 positive response of T2R receptor to API [5]: + (a “+” to indicate whether a particular T2R receptor showed a positive response to a particular API)

SMILES: CC(=O)CC(c1ccccc1)c1c(O)c2ccccc2oc1=O (centres unmarked) [Warfarin]
- S1 positive response of T2R receptor to API [1]: + (a “+” to indicate whether a particular T2R receptor showed a positive response to a particular API)
- S4 positive response of T2R receptor to API [3]: + (a “+” to indicate whether a particular T2R receptor showed a positive response to a particular API)
- S5 positive response of T2R receptor to API [4]: + (a “+” to indicate whether a particular T2R receptor showed a positive response to a particular API)
